A short description of data set [1]: Complete blood counts of moribund cisplatin-treated mice after BMNC transplantation. Format: in vivo. Particulars: after BMT. The procedure: (§1) To protect from kidney damage, mice were simultaneously subcutaneously (s.c.) injected with 1 mL of saline solution. Four weeks after the last injection of cisplatin, mice were euthanized for analysis, transplanted (see below) or mobilized with granulocyte colony-stimulating factor (G-CSF, see below).
Mice were irradiated (1,200 cGy, two split doses, 3 hours apart) in a Cesium Mark 1 irradiator (JL Shepperd & associates). Three hours later, the indicated number of BMNCs was injected retroorbitally in the irradiated recipients under isoflurane (Phoenix Pharmaceuticals) anesthesia. Mice were allowed to recover and analyzed at the indicated time points.
Blood was harvested by retro-orbital sampling of mice anesthetized with isoflurane and collected in polypropylene tubes containing ethylenediaminetetraacetic acid (EDTA). Blood parameters were determined with an AcT differential counter (Beckman-Coulter). CFU-C assays were performed as described in He et al., Ann. Rev. Cell. Dev. Biol. 25:377 (2009), incorporated herein by reference. For flow cytometry, red blood cells were lysed thrice for 5 minutes at 4° C. in 0.15 M NH4Cl, cells were washed once in ice-cold PBS and counted in a hemocytometer. […] Cells were further stained with streptavidin-Cy5 (Jackson Immunotech) and analyzed with a BD LSR11 system (BD Biosciences). […] CFU-C and Lin^−Sca1^+c-kit^+ft13^− numbers were determined as above. […]

Data set [2] is classed as in vivo. Particulars: cisplatin-treated vs saline mice, seven weekly injections; listed as Cisplatin. How it is done: To protect from kidney damage, mice were simultaneously subcutaneously (s.c.) injected with 1 mL of saline solution. Four weeks after the last injection of cisplatin, mice were euthanized for analysis, transplanted (see below) or mobilized with granulocyte colony-stimulating factor (G-CSF, see below). […] To induce neuroprotection from 60HDA, mice were injected with 4-MC (10 μg/kg; i.p.) or GDNF-Fc (5 μg per mice; s.c.) for 5 days, starting the treatment the same day as the first injection of 60HDA. To evaluate the effect of different treatments on the sensory response, the hot-plate test was performed as described in Raaijmakers et al., Curr. Opin. Hematol. 15:301 (2008), incorporated herein by reference. An Isotemp Dryblock (Fisher Scientific) was heated to, and maintained at, 50° C. Mice were individually placed on top of the heated surface and the time to the first episode of nociception (jumping or paw licking) was measured. The cut-off time was 60 seconds. Between measurements, the heated surface was thoroughly cleaned with detergent and ethanol and the temperature was allowed to stabilize at 50° C.

Another data set has as its system bone marrow. The data set is described as follows: Bone marrow hematopoietic recovery after transplantation (BMNC, CFU-C, Lin-Sca1+c-kit+flt3- cells). Type of data set: in vivo, mice. How it is done: Mice were irradiated (1,200 cGy, two split doses, 3 hours apart) in a Cesium Mark 1 irradiator (JL Shepperd & associates). Three hours later, the indicated number of BMNCs was injected retroorbitally in the irradiated recipients under isoflurane (Phoenix Pharmaceuticals) anesthesia. Mice were allowed to recover and analyzed at the indicated time points. […]
(§2) Blood was harvested by retro-orbital sampling of mice anesthetized with isoflurane and collected in polypropylene tubes containing ethylenediaminetetraacetic acid (EDTA). Blood parameters were determined with an AcT differential counter (Beckman-Coulter). CFU-C assays were performed as described in He et al., Ann. Rev. Cell. Dev. Biol. 25:377 (2009), incorporated herein by reference. For flow cytometry, red blood cells were lysed thrice for 5 minutes at 4° C. in 0.15 M NH4Cl, cells were washed once in ice-cold PBS and counted in a hemocytometer. To determine Lin^−Sca1^+c-kit^+ or Lin^−Sca1^+c-kit^+ft13^− numbers, 10^6 cells were stained with the Mouse Lineage Panel (BD Biosciences) together with FITC-conjugated anti-Sca-1 antibody (BD Biosciences), PE-Cy7-conjugated anti-c-kit antibody (eBioscience) and PE-conjugated anti-flt3 antibody (eBioscience). Cells were further stained with streptavidin-Cy5 (Jackson Immunotech) and analyzed with a BD LSR11 system (BD Biosciences). Bone marrow was harvested by flushing the bone with 1 mL of ice-cold PBS, red blood cells were lysed once for 5 minutes at 4° C. in 0.15 M NH4Cl, cells were washed once in ice-cold PBS and counted with a hemocytometer. CFU-C and Lin^−Sca1^+c-kit^+ft13^− numbers were determined as above. In some experiments, CD150^+CD48^− cell numbers were determined by staining 5×10^6 cells with PE-anti-CD48 antibody (BD Biosciences) and PE-Cy7-anti-CD150 antibody (Biolegend).

On the set-up of data set [3]: species or system mice. Particulars: mouse, in vivo. How it is done: as §1
To induce neuroprotection from 60HDA, mice were injected with 4-MC (10 μg/kg; i.p.) or GDNF-Fc (5 μg per mice; s.c.) for 5 days, starting the treatment the same day as the first injection of 60HDA.
Mice received G-CSF ([…]) s.c. every 12 hours for 5 days. Due to circadian oscillations on HSC mobilization, the last dose of G-CSF was administered 1 hour before blood collection at Zeigeber time 5.
as §2, with “To determine Lin^−Sca1^+c-kit^+ or Lin^−Sca1^+c-kit^+ft13^− numbers, 10^6 cells were stained with the Mouse Lineage Panel (BD Biosciences) together with FITC-conjugated anti-Sca-1 antibody (BD Biosciences), PE-Cy7-conjugated anti-c-kit antibody (eBioscience) and PE-conjugated anti-flt3 antibody (eBioscience).” left out

In another data set the test system is TH+ fibers. The data set is described as follows: Immunofluorescence quantification of TH+ sympathetic fibers in bone marrow / calvaria. The settings on record: compared with vehicle control.
Another data set has as its system PC12ES cells. Briefly: Neural differentiation of PC12ES cells. Format: cell-based. Particulars: incubation for 1 week. How it is done:
The murine cDNA for glial cell-line derived neurotrophic factor (Gdnf) was obtained from Open Biosystems. This cDNA was amplified and restriction sites were added for cloning with the following primers Forward: ACGCTAGCAATGGGATTCGGGCCACTT (SEQ ID NO:1); Reverse: CGAGATCTGCGATACATCCACACCGTTTAG (SEQ ID NO:2). The PCR product was purified and cloned into the PCL5.1neg plasmid to generate PCL5.1neg-GDNF. This plasmid was purified and transfected into 293T cells. Two days after transfection, the supernatant was collected and GDNF-Fc purified in a Protein G-sepharose column (Pierce). To assess functional activity of GDNF-Fc recombinant protein, PC12ES cells were cultured in DMEM supplemented with 5% FBS, 10% horse serum, sodium-pyruvate (Gibco), L-Glutamine (Gibco) and penicillin/streptomycin (Gibco) for 3 days and then the media was replaced with DMEM supplemented with 1% horse serum, sodium-pyruvate (Gibco), L-Glutamine (Gibco), penicillin/streptomycin (Gibco) and varying amounts of GDNF-Fc to induce differentiation. Seven days later the percentage of PC12 ES cells with two or more dendrites was scored under an inverted microscope. For each concentration of GDNF-Fc, 10 fields were analyzed.

Description for TH+ fibers: Bones were collected and fixed for 1 hour in 4% paraformaldehyde (PFA) in PBS (Electron Microscopy Sciences) at 4° C. They were then post-fixed overnight in 1% PFA in PBS at 4° C. and cryoprotected for 24 hours in 30% sucrose. Bones were then included in OCT (Tissue Tek), sectioned (14 μm sections) in a Cryostat, and mounted on CFSA 4× Slides (Leica). TH^+ immunofluorescence staining was performed as previously described in Mendez-Ferrer, et al., Nature 452:442 (2008), incorporated herein by reference. For each mouse analyzed, the number of nerve fibers in 6 fields was quantified and plotted as per mm^2. For whole-mount immunofluorescence, calvaria were harvested by cutting along the temporal lines of the skull and immediately fixed in methanol. Bone tissues were blocked/permeabilized in PBS containing 20% FCS and 0.5% Triton and stained with APC-conjugated anti-PECAM CD31 antibody and TH (Millipore). Signal amplification for TH staining was achieved by using a signal amplification kit (Perkin Elmer). Whole-mount tissues were imaged face-down on an upright Olympus BX61WI microscope. The area between the frontal and parietal bones was identified by moving along the coronal suture and images were obtained from the same area for all mice, along the coronal vein on either side of the central vein. The numbers of individual nerve fibers running alongside blood vessels were quantified and plotted as per 100 μm vessel segment. All images were processed using Slidebook software (Intelligent Imaging Innovations, Inc.).

`N.N.[Cl][Pt][Cl]` [cisplatin]: the “anemia in moribund mice” value in data set [1] was “severe anemia”. The “sensory neuropathy (latency time in nociception assay)” value in data set [2] is recorded as “induces peripheral neuropathy”. In the data set with bone marrow (cisplatin-treated, four weeks after BMT), the “bone marrow cellularity of surviving mice after transplantation” value is listed as “severely aplastic”. Besides, in the data set on bone marrow (mouse, in vivo), the “BM recovery 3 months after transplantation” value is “not yet completely recovered” and the “HSC content by competitive repopulation assays” value is given as “reduced HSC content”. Also, in data set [3], the “number of mobilized progenitors in blood after G-CSF” value is “markedly reduced”; the “progenitor and Lin-Sca1+c-kit+flt3- HSC numbers in BM” value is “no significant change”; the “reduction in number of mobilized progenitors in blood” value is on record as “approximately 50%”. For the same molecule, the “reduction of density of TH+ fibers in bone marrow” value with TH+ fibers was determined as 65%.

B1: GDNF-HA: glial cell-derived neurotrophic factor-hemagluttinin fusion (protein, UniProt P39905 78-211, looked up)
Glial cell line-derived …: SPDKQMAVLPRRERNRQAAAANPENSRGKGRRGQRGKNRGCVLTAIHLNVTDLGLGYETKEELIFRYCSGSCDAAETTYDKILKNLSRNRRLVSDKVGQACCRPIAFDDDLSFLDDNLVYHILRKHSAKRCGCI
modifications: hemagglutinin tag
notes: glial cell-derived neurotrophic factor-hemagluttinin fusion
Consider B1, for which the “neural differentiation of PC12ES cells (percent differentiated)” value in the data set with PC12ES cells is listed as “increase in the percent differentiation”.

The values are drawn from patent US20130230580A1, “Administration of SNS Neuroprotective Agents to Promote Hematopoietic Regeneration” (priority 2010, published 2013).
